Results as given in PubChem BioAssay AID328 (DTP/NCI, 2004).
Several values for one entry are separate records, joined by “and”; a condition that tells them apart may be missing. Equal values may be shown once. Inconclusive results and toxic doses are left out.

Test system: BDF1 mice, P388 leukemia ip, median survival T/C
Assay: NCI In Vivo Anticancer Drug Screen. Data for tumor model P388 Leukemia (intraperitoneal) in B6D2F1 (BDF1) mice
Details: endpoint: median survival time, higher = longer survival
How it was run: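 Mice carrying the transplantable tumour receive compound or vehicle. Survival is followed in each arm, and the treated measure is divided by the vehicle measure.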

[1] = dose: 100.0 mg/kg/injection, schedule: Q01DX009 (ip), vehicle: saline with Tween-80
[2] = dose: 200.0 mg/kg/injection, schedule: Q01DX009 (ip), vehicle: saline with Tween-80
[3] = dose: 400.0 mg/kg/injection, schedule: Q01DX009 (ip), vehicle: saline with Tween-80

**Q.** How did the T/C (dose: 0.12 mg/kg/injection, schedule: Q01DX009 (ip), vehicle: saline with Tween-80) turn out when `CCOC(=N)c1cn(C2OC(CO)C(O)C2O)c2ncnc(N)c12` (stereo unspecified) was run?
**A.** 168 % of control

**Q.** And the T/C (dose: 0.22 mg/kg/injection, schedule: Q01DX009 (ip), vehicle: saline)?
**A.** 174 % of control

**Q.** What about the T/C (dose: 0.25 mg/kg/injection, schedule: Q01DX009 (ip), vehicle: saline with Tween-80) of the same compound?
**A.** 195 % of control

**Q.** And the T/C (dose: 0.33 mg/kg/injection, schedule: Q01DX009 (ip), vehicle: saline)?
**A.** 196 % of control

**Q.** And the T/C (dose: 0.5 mg/kg/injection, schedule: Q01DX009 (ip), vehicle: saline with Tween-80)?
**A.** 163 % of control

**Q.** And the T/C (dose: 0.5 mg/kg/injection, schedule: Q01DX009 (ip), vehicle: saline)?
**A.** 186 % of control

**Q.** And the T/C (dose: 0.5 mg/kg/injection, schedule: Q04DX003 (ip), vehicle: saline with Tween-80)?
**A.** 150 % of control

**Q.** And the T/C (dose: 0.75 mg/kg/injection, schedule: Q01DX009 (ip), vehicle: saline)?
**A.** 196 % of control

**Q.** What about the T/C (dose: 0.8 mg/kg/injection, schedule: Q04DX003 (ip), vehicle: saline with Tween-80) of the same compound?
**A.** 190 % of control

**Q.** And the T/C (dose: 1.2 mg/kg/injection, schedule: Q04DX003 (ip), vehicle: saline with Tween-80)?
**A.** 272 % of control

**Q.** And the T/C (dose: 1.8 mg/kg/injection, schedule: Q04DX003 (ip), vehicle: saline with Tween-80)?
**A.** 190 % of control and 209 % of control

**Q.** What about the T/C (dose: 2.6 mg/kg/injection, schedule: Q04DX003 (ip), vehicle: saline with Tween-80) of the same compound?
**A.** 200 % of control

**Q.** And the T/C (dose: 6.0 mg/kg/injection, schedule: Q04DX003 (ip), vehicle: saline with Tween-80)?
**A.** 90 % of control

**Q.** And the T/C (dose: 5.3 micrograms/kg/injection, schedule: Q01DX009 (ip), vehicle: saline)?
**A.** 106 % of control

**Q.** And the T/C (dose: 8.0 micrograms/kg/injection, schedule: Q01DX009 (ip), vehicle: saline)?
**A.** 115 % of control

**Q.** What about the T/C (dose: 15.0 micrograms/kg/injection, schedule: Q01DX009 (ip), vehicle: saline with Tween-80) of the same compound?
**A.** 120 % of control

**Q.** And the T/C (dose: 27.0 micrograms/kg/injection, schedule: Q01DX009 (ip), vehicle: saline)?
**A.** 152 % of control

**Q.** What about the T/C (dose: 40.0 micrograms/kg/injection, schedule: Q01DX009 (ip), vehicle: saline) of the same compound?
**A.** 159 % of control

**Q.** And the T/C (dose: 60.0 micrograms/kg/injection, schedule: Q01DX009 (ip), vehicle: saline)?
**A.** 169 % of control

**Q.** And the T/C (dose: 66.0 micrograms/kg/injection, schedule: Q01DX009 (ip), vehicle: saline)?
**A.** 155 % of control

**Q.** What about the T/C (dose: 100.0 micrograms/kg/injection, schedule: Q01DX009 (ip), vehicle: saline) of the same compound?
**A.** 154 % of control

**Q.** For `c1ccc(-c2nc3ccccc3nc2-c2ccc(Sc3ccc(-c4nc5ccccc5nc4-c4ccccc4)cc3)cc2)cc1`, which T/C [1] is on record?
**A.** 101 % of control

**Q.** And the T/C [2]?
**A.** 93 % of control

**Q.** Which results are given for `CC(=O)CC(=O)NC1CCCCC1`?
**A.** T/C [1]: 100 % of control; T/C [2]: 100 % of control; T/C [3]: 100 % of control

**Q.** What does the source list for `O=C1NNC2CCCCC2O1` (stereo unspecified)?
**A.** T/C (dose: 50.0 mg/kg/injection, schedule: Q01DX009 (ip), vehicle: saline with Tween-80): 94 % of control; T/C [1]: 90 % of control

**Q.** What does the source list for `CCCCCCC(=O)/C=C/c1ccc(N(C)C)cc1`?
**A.** T/C [1]: 97 % of control; T/C [2]: 97 % of control; T/C [3]: 93 % of control

**Q.** For `O=C(OC1COC(n2c(=O)oc3ccc(F)cc32)C(OC(=O)c2ccccc2)C1OC(=O)c1ccccc1)c1ccccc1` (stereo unspecified), which T/C (dose: 100.0 mg/kg/injection, schedule: Q01DX009 (ip), vehicle: Klucel (hydroxypropylcellulose) (HPC)) is on record?
**A.** 104 % of control

**Q.** What about the T/C (dose: 100.0 mg/kg/injection, schedule: Q04DX003 (ip), vehicle: Klucel (hydroxypropylcellulose) (HPC)) of the same compound?
**A.** 113 % of control

**Q.** What about the T/C (dose: 200.0 mg/kg/injection, schedule: Q01DX009 (ip), vehicle: Klucel (hydroxypropylcellulose) (HPC)) of the same compound?
**A.** 100 % of control

**Q.** And the T/C (dose: 200.0 mg/kg/injection, schedule: Q04DX003 (ip), vehicle: Klucel (hydroxypropylcellulose) (HPC))?
**A.** 100 % of control

**Q.** What about the T/C (dose: 400.0 mg/kg/injection, schedule: Q01DX009 (ip), vehicle: Klucel (hydroxypropylcellulose) (HPC)) of the same compound?
**A.** 90 % of control

**Q.** What about the T/C (dose: 400.0 mg/kg/injection, schedule: Q04DX003 (ip), vehicle: Klucel (hydroxypropylcellulose) (HPC)) of the same compound?
**A.** 95 % of control

**Q.** Which T/C (dose: 12.5 mg/kg/injection, schedule: Q01DX009 (ip), vehicle: gum acacia) does the source give for `CC(C)(C)CC(C)(C)c1c(O)cc(O)cc1Cl` here?
**A.** 99 % of control

**Q.** What about the T/C (dose: 25.0 mg/kg/injection, schedule: Q01DX009 (ip), vehicle: gum acacia) of the same compound?
**A.** 91 % of control

**Q.** What about the T/C (dose: 50.0 mg/kg/injection, schedule: Q01DX009 (ip), vehicle: gum acacia) of the same compound?
**A.** 89 % of control

**Q.** Which T/C (dose: 2.75 mg/kg/injection, schedule: Q01DX009 (ip), vehicle: alcohol) does the source give for `C=C1C(=O)O[C@@H]2/C=C(\CO)CC/C=C(\C)C[C@H](OC(=O)C(C)CO)[C@@H]12` (stereo partly specified) here?
**A.** 118 % of control
